Here are results for 4 molecules from patent US20260199505A1, “COMBINATION THERAPY COMPRISING BISPECIFIC ANTIBODIES COMPRISING AN NRP1 BINDING DOMAIN” (Pinetree Therapeutics, Inc., priority 2022, published 2026).

One experiment has as its system H1975-HGF. Put plainly: H1975-HGF (HGF-overexpressing) xenograft model. The experiment is classed as in vivo, mouse. The conditions noted are these: for tumor volume over time (FIG. 6B): second set, Osimertinib 10 mg/kg i.p. QD, Crizotinib 20 mg/kg i.p. QD, EGFR degrader 15 mg/kg i.p. QW; for tumor volume over time (FIG. 6A): first set, Panitumumab 5 mg/kg, EGFR degrader 6.87 mg/kg, Amivantamab 5.05 mg/kg i.p. BIW, Osimertinib 3 mg/kg i.p. QD. Here is the method: (§1) The H1975-HGF cell line was prepared by recombinantly engineering the H1975 cell line to express HGF by standard methods. Thus, the H1975-HGF xenograft model represents a dual activation model in which both the EGFR and cMET pathways are constitutively activated.

For a further experiment, the system named is HGF/cMET pathway. Put plainly: HGF/cMET pathway inhibition in H1975 cells. The conditions noted are these: data not shown. In kind it is cell-based. Here is the method: as §1
Another experiment relates to H1975. As to the kind of experiment: H1975 (Osimertinib-sensitive, parental) xenograft mouse model. In kind it is in vivo. The conditions noted are these: 3 mg/kg Osimertinib.
The next experiment deals with H1975-OR. Put plainly: Osimertinib-resistant mouse xenograft model (H1975-OR). In kind it is in vivo. Particulars: Osimertinib dose of 3 mg/kg. The source says: Panitumumab is a fully humanized anti-EGFR monoclonal antibody, which binds to EGFR and block the EGFR signaling. Osimertinib is an EGFR tyrosine kinase inhibitor.
For a further experiment, the system named is H1975-NRP1 OE. Put plainly: H1975-NRP1 OE (NRP1-overexpressing) xenograft model. Particulars: 3 mg/kg Osimertinib.

Counter-ions that a name gives are not always drawn.

Text for H1975-NRP1 OE: In this example, a modified version of the H1975 xenograft model was used in which the tumor cells were engineered to overexpress NRP1.

Take `C[C@@H](Oc1cc(-c2cnn(C3CCNCC3)c2)cnc1N)c1c(Cl)ccc(F)c1Cl` [Crizotinib]: the “tumor volume over time (FIG. 6B)” value in the experiment on H1975-HGF is “limited efficacy”. For the same molecule, the cMET pathway signaling result in the experiment on HGF/cMET pathway is listed as “blocked cMET pathway signaling”.

As to “Panitumumab: fully humanized anti-EGFR monoclonal antibody, which binds to EGFR and block the EGFR signaling”, in the experiment on H1975-HGF, the “tumor volume over time (FIG. 6A)” value is recorded as “exhibited resistance”.

Consider `C=CC(=O)Nc1cc(Nc2nccc(-c3cn(C)c4ccccc34)n2)c(OC)cc1N(C)CCN(C)C` [Osimertinib, N-(2-{2-dimethylaminoethyl-methylamino}-4-methoxy-5-{[4-(1-methylindol-3-yl)pyrindin-2-yl]amino}phenyl)prop-2-enamide mesylate salt], for which the tumor response entry with H1975 is “strong and persistent tumor regression”. Also, in the experiment on H1975-OR, the anti-tumor activity result is listed as “did not show anti-tumor activity”. Moreover, in the experiment with H1975-HGF, the “tumor volume over time (FIG. 6A)” value is “exhibited resistance” and the “tumor volume over time (FIG. 6B)” value was “did not prevent tumor growth over time”. The tumor response result with H1975-NRP1 OE is on record as “significant tumor progression”.

B1: Amivantamab: an EGFR×cMET bispecific antibody construct (antibody, chains of the INN, looked up, V domains shown)
VH: QVQLVESGGGVVQPGRSLRLSCAASGFTFSTYGMHWVRQAPGKGLEWVAVIWDDGSYKYYGDSVKGRFTISRDNSKNTLYLQMNSLRAEDTAVYYCARDGITMVRGVMKDYFDYWGQGTLVTVSS
VL: AIQLTQSPSSLSASVGDRVTITCRASQDISSALVWYQQKPGKAPKLLIYDASSLESGVPSRFSGSESGTDFTLTISSLQPEDFATYYCQQFNSYPLTFGGGTKVEIK
VH2: QVQLVQSGAEVKKPGASVKVSCETSGYTFTSYGISWVRQAPGHGLEWMGWISAYNGYTNYAQKLQGRVTMTTDTSTSTAYMELRSLRSDDTAVYYCARDLRGTNYFDYWGQGTLVTVSS
VL2: DIQMTQSPSSVSASVGDRVTITCRASQGISNWLAWFQHKPGKAPKLLIYAASSLLSGVPSRFSGSGSGTDFTLTISSLQPEDFATYYCQQANSFPITFGQGTRLEIK
With B1, in the experiment with HGF/cMET pathway, the cMET degradation result is on record as “led to cMET degradation” and the cMET pathway signaling result was “blocked cMET pathway signaling”.
